Laboratory results as given in US9346761B2, “Arginine methyltransferase inhibitors and uses thereof” (Epizyme, Inc., priority 2013, dated 2016).
pIC50: −log10 of the molar value.

Target: T1, Full-length human PRMT1 isoform 1 (Homo sapiens, UniProt Q99873)
T1 construct: GST-tagged PRMT1; made in house; host or cells: High Five insect cells (baculovirus, pFastBacI)
Test: PRMT1 biochemical assay (3H-SAM Flashplate, peptide substrate)
Outline: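 Tritiated methyl transfer from 3H-SAM onto biotinylated peptide, captured on streptavidin Flashplates and counted. Baculovirus-expressed GST-PRMT1 and compound were preincubated 30 min at room temperature in Bicine buffer pH 7.6. Cold SAM at 300 uM final ended the reaction.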

T1 sequence (Q99873 with tags, fused parts or gaps): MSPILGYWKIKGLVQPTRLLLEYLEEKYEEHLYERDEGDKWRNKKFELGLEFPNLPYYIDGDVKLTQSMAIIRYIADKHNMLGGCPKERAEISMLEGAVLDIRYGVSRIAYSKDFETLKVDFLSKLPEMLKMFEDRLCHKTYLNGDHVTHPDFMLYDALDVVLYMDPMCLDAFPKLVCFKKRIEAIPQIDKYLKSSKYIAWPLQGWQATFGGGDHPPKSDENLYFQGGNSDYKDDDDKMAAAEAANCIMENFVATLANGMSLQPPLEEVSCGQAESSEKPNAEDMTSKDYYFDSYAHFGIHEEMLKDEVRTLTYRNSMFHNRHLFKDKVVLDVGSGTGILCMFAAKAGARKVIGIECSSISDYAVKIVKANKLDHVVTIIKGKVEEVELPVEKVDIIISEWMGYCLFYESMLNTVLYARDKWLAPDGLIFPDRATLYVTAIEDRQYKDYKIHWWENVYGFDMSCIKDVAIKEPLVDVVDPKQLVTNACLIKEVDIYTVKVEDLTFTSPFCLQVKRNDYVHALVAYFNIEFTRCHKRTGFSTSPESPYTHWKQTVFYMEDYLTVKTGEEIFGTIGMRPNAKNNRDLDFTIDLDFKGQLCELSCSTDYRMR

Row | Structure (SMILES) | pIC50
1 | CN(CCN)Cc1c[nH]nc1-c1ccc(OC(F)F)cc1 [Compound 94] | > 7.00
2 | CN(CCN)Cc1cn(CC(O)CO)nc1-c1ccc(F)cc1 (centres unmarked) [Compound 76] | 5.00 to 5.52
3 | CCCN(CCN)Cc1c[nH]nc1-c1ccc(F)cc1 [Compound 63] | 5.52 to 6.00
4 | CN(CCN)Cc1cn(CCO)nc1-c1ccc(F)cc1 [Compound 66] | 5.52 to 6.00
5 | CNCCN(C)Cc1c[nH]nc1-c1ccc(OC)cc1OC [Compound 55] | 6.00 to 7.00
6 | CN(CCN)Cc1c(-c2ccc(C#N)cc2)cnn1C [Compound 84] | < 5.00
7 | CNCCN(C)Cc1c[nH]nc1-c1ccc(F)cc1 [Compound 2, N^1-((3-(4-fluorophenyl)-1H-pyrazol-4-yl)methyl)-N^1,N^2-dimethylethane-1,2-diamine] | > 7.00
8 | CN(CCN)Cc1cn(C)nc1-c1ccc(F)cc1 [Compound 3] | > 7.00
9 | CN(CCN)Cc1c[nH]nc1-c1cccc(C#N)c1 [Compound 70] | 6.00 to 7.00
10 | CNCCN(C)Cc1c[nH]nc1-c1c(OC)cccc1OC [Compound 56] | 5.00 to 5.52
11 | CN(CCN)Cc1c[nH]nc1-c1cccc(F)c1 [Compound 71] | > 7.00
12 | Cc1ccc(-c2n[nH]cc2CN(C)CCN)c(Cl)c1 [Compound 90] | > 7.00
13 | COc1ccc(-c2n[nH]cc2CN(C)CCN)c(OC)c1 [Compound 87] | 6.00 to 7.00
14 | CN(CCN)Cc1c[nH]nc1-c1ccccc1F [Compound 72] | 6.00 to 7.00
15 | CNCCN(C)Cc1c[nH]nc1-c1ccc(C(=O)c2ccccc2)cc1 [Compound 45] | > 7.00
16 | COCCn1cc(CN(C)CCN(C)C)c(-c2ccc(F)cc2)n1 [Compound 61] | < 5.00
17 | CNCCN(C)Cc1c[nH]nc1-c1cccc2ccccc12 [Compound 57] | > 7.00
18 | CN(CCN)Cc1c[nH]nc1-c1ccc(OC(F)(F)F)cc1 [Compound 93] | > 7.00
19 | NCCN(Cc1c[nH]nc1-c1ccc(F)cc1)C1CC1 [Compound 78] | 6.00 to 7.00
20 | CN(CCN)Cc1cnn(CC2COC2)c1-c1ccc(F)cc1 [Compound 80] | < 5.00
21 | CNCCN(C)Cc1c[nH]nc1-c1cc(Cl)ccc1OC [Compound 53] | 5.00 to 5.52
22 | CN(CCN)Cc1c[nH]nc1-c1ccc(C#N)cc1 [Compound 68] | > 7.00
23 | CN(CCN)Cc1c[nH]nc1-c1ccc(Cl)cc1Cl [Compound 86] | > 7.00
24 | CNCCN(C)Cc1c[nH]nc1-c1ccc(OC)c(F)c1 [Compound 52] | > 7.00
25 | CN(CCN)Cc1n[nH]cc1-c1ccc(F)cc1 [Compound 69] | > 7.00

Row | Structure (SMILES) | pIC50
26 | CN(CCN)Cc1c[nH]nc1-c1ccc(N2CCNCC2)cc1 [Compound 82] | > 7.00
27 | CN(CCN)Cc1cn(CC2COC2)nc1-c1ccc(F)cc1 [Compound 79] | < 5.00
28 | CNCCN(C)Cc1c[nH]nc1-c1ccc(F)c(F)c1 [Compound 51] | > 7.00
29 | CCNCCN(C)Cc1c[nH]nc1-c1ccc(F)cc1 [Compound 60] | 6.00 to 7.00
30 | CN(CCN)Cc1cn(C2COC2)nc1-c1ccc(F)cc1 [Compound 77] | 6.00 to 7.00
31 | CN(CCN)Cc1c[nH]nc1-c1ccc(F)cc1Cl [Compound 89] | > 7.00
32 | CN(CCN)Cc1cnn(CCO)c1-c1ccc(F)cc1 [Compound 65] | 5.52 to 6.00
33 | CNCCN(C)Cc1c[nH]nc1-c1cc(F)ccc1F [Compound 50] | 6.00 to 7.00
34 | COCCn1ncc(CN(C)CCN(C)C)c1-c1ccc(F)cc1 [Compound 64] | < 5.00
35 | CCN(CCN)Cc1c[nH]nc1-c1ccc(F)cc1 [Compound 62] | > 7.00
36 | CN(CCN)Cc1cnn(C2COC2)c1-c1ccc(F)cc1 [Compound 81] | 6.00 to 7.00
37 | CNCCN(C)Cc1c[nH]nc1-c1ccc(F)cc1F [Compound 49] | 6.00 to 7.00
38 | CN(CCN)Cc1c[nH]nc1-c1ccccc1 [Compound 73] | 6.00 to 7.00
39 | CNCCN(C)Cc1cn(CCC(O)CO)nc1-c1ccc(F)cc1 (centres unmarked) [Compound 59] | 5.00 to 5.52
40 | CN(CCN)Cc1nn(C)cc1-c1ccc(C#N)cc1 [Compound 83] | > 7.00
41 | Cc1ccc(Cl)c(-c2n[nH]cc2CN(C)CCN)c1 [Compound 91] | 6.00 to 7.00
42 | CNCCN(C)Cc1c[nH]nc1-c1cccc(OC)c1OC [Compound 54] | 6.00 to 7.00
43 | CN(CCN)Cc1cnn(C)c1-c1ccc(F)cc1 [Compound 4] | 6.00 to 7.00
44 | CNCCN(C)Cc1c[nH]nc1-c1ccccc1-c1ccccc1 [Compound 46] | 5.52 to 6.00
45 | Cc1ccc(-c2n[nH]cc2CN(C)CCN)c(C)c1 [Compound 88] | 6.00 to 7.00
46 | CC(C)N(CCN)Cc1c[nH]nc1-c1ccc(F)cc1 [Compound 75] | 6.00 to 7.00
47 | CN(CCN)Cc1c[nH]nc1-c1ccc(C(C)(C)C)cc1 [Compound 74] | > 7.00
48 | CN(CCN)Cc1c[nH]nc1-c1ccc(C(F)(F)F)cc1 [Compound 92] | > 7.00
49 | CNCCN(C)Cc1c[nH]nc1-c1ccc2ccccc2c1 [Compound 58] | > 7.00
50 | CN(CCN)Cc1c[nH]nc1-c1ccc(C(F)(F)F)cc1C(F)(F)F [Compound 85] | 6.00 to 7.00
